Here are results for six compounds from patent US8192761B2, “Granular preparation containing biguanide compound” (Dainippon Sumitomo Pharma Co., Ltd., priority 2005, dated 2012).

The data set in a line: Stability testing: appearance (solidification) of fine granules after storage in tightly sealed glass containers. The data set is classed as physicochemical. As to conditions: additive added to metformin hydrochloride fine granules, 40° C. Here is the method: Using fine granules obtained in Examples 1-14 and Comparative Examples 1-16, a stability testing was performed. Fine granules (5 g) were each placed in glass containers, which were tightly sealed and stored at 40° C. for 1 week.
Appearance of metformin hydrochloride fine granules after storage at 40° C. for 1 week
As to `O=P([O-])([O-])O.[Ca+2]` [anhydrous dibasic calcium phosphate], the solidification-preventive effect entry is reported as “did not show a solidification-preventive effect”. For `O=C([O-])[O-].[Ca+2]` [calcium carbonate] the value was “did not show a solidification-preventive effect”; for `[Ca+2].[Cl-].[Cl-]` [calcium chloride], “a solidification-preventive effect was observed”.

For the compound `OC[C@H]1O[C@@H](O[C@H]2[C@H](O)[C@@H](O)C(O)O[C@@H]2CO)[C@H](O)[C@@H](O)[C@H]1O` (stereo partly drawn) [lactose], the solidification-preventive effect result is “did not show a solidification-preventive effect”. For calcium stearate the value was “did not show a solidification-preventive effect”. On to magnesium stearate, for which the solidification-preventive effect entry is reported as “a solidification-preventive effect was observed”.
